Data from a melting point compilation (Tetko et al.; mined from patent text by program, amines drawn as free bases though some values may be those of a salt).

SMILES | melting point
COc1cc2c(cc1O)CCN(Cc1cccnc1)C2 | 165 to 166 °C
COc1ccccc1N1CCN(CCCCNc2cc(Cl)nnc2Cl)CC1 | 155 to 170 °C
COc1ccc(NN=C(Sc2ccc(C)c(C)c2)C(C)=O)cc1 | 138 to 141 °C
O=C(NC1CCCCC1)c1c(O)c2ccccc2[nH]c1=O | 221 °C
CC(=O)C1CCC2C3CCC4CC(O)CCC4(C)C3=CCC12C (stereo not given) | 160 to 161 °C
COC(=O)c1ccc(NNC(=O)C(C)C)cc1S(N)(=O)=O | 198 to 200 °C
O=C1C(c2ccccc2)=C(c2ccccc2)C(=O)N1c1cccc(Cl)c1 | 144 to 145 °C
O=c1[nH]c2ccccc2c(=O)n1-c1ccc(Cl)cc1 | 288 to 290 °C
CCc1cnc(C2=NC(C)(C(C)C)C(=O)N2)c(C(=O)NCCCC(=O)OC)c1 (stereo not given) | 132 to 134 °C
CN1C(=O)CCCc2ccc([N+](=O)[O-])cc21 | 151 to 152 °C
Nc1c(Cl)c(C(=O)O)nc(Cl)c1C(F)(F)F | 173 °C
Cc1c(C)c([N+](=O)[O-])c(C)c2c1OC(C)(C)C2c1ccccc1 (stereo not given) | 155 to 156 °C
COCCOc1cc([N+](=O)[O-])c2[nH]c(C(=O)O)cc2c1 | 192 to 193 °C
Fc1cc(CCl)c(F)cc1CCl | 62.5 to 64.5 °C
CCOC(=O)COc1cc(F)c(-c2ncnc(C(F)(F)F)c2Cl)cc1[N+](=O)[O-] | 127 to 129 °C
CCOc1cccc(COc2ccc3c(c2)C=C(C(=O)Nc2ccc(CN(C)C4CCOCC4)cc2)CCS3(=O)=O)c1 | 189 to 192 °C
On1nnc2cccnc21 | 216 to 217 °C
O=C(OCc1ccccc1)N1CC(O)(C(=O)O)C1 | 134 to 136 °C
CC(CCl)N1C(=O)N(c2ccc(Cl)cc2)CC1C (stereo not given) | 70 to 72 °C
O=C(O)C1CCCc2c1ccc1c2OCO1 (stereo not given) | 225 to 257 °C
C[C@H](NC(=O)OCc1ccccc1)C(=O)N1CCC[C@H]1C(=O)Nc1ccccc1 | 138 to 139 °C
CC(C)(C)OC(=O)c1ncn2c1[C@@H]1CCCN1C(=O)c1cc(N)ccc1-2 | 223 to 224 °C
COC(=O)CNC(=O)NC(CSC(C)=O)Cc1ccccc1 (stereo not given) | 102 °C
CCCCCCCCCCOCCCCCCCSCCCO | 28 to 32 °C
O=C(O)c1cc2c(-c3ccncc3)nccc2[nH]c1=O | > 300 °C

SMILES | melting point
CCCCOc1cc(/C=C/S(=O)(=O)NC(=O)OC(C)(C)C)n(Cc2ccc(Cl)cc2Cl)n1 | 152 to 153 °C
Cc1cc2c(c3c1NC(=O)CC3)OC(CN)C2 (stereo not given) | > 300 °C
CC(C)(C)OC(=O)NCC(COS(C)(=O)=O)NC(=O)OC(C)(C)C (stereo not given) | 94 to 96 °C
CC(=O)c1cccc(S(=O)(=O)NCc2ccccc2-c2ccccc2C(=O)NCc2ccccc2)c1 | 182 °C
CCn1cc(CN(C(=O)C2CCc3cc(OC)ccc32)c2ccc(C(C)C)cc2)cn1 (stereo not given) | 115 to 116 °C
CNC(=O)C(C)C(O)(Cn1cncn1)c1ccc(Cl)cc1Cl (stereo not given) | 242 to 244 °C
Cn1ccc2cc(N3Cc4c(cccc4[N+](=O)[O-])C3=O)ccc21 | 267 to 271 °C
CCc1ccc2c(c1)cc(C(=O)O)n2CC(=O)OC | 181 °C
COC(=O)c1nsc(N)n1 | 202 to 205 °C
COc1ccccc1OCC(O)CN1CCC2(CC1)CNC(=O)O2 (stereo not given) | 124 to 125 °C
O=C(O)c1snc(-c2ccccc2)c1O | 161 to 163 °C
N#Cc1c(Cc2ccccc2)nn(C2CCCC2)c1N | 180 to 182 °C
Cc1cc2c(c(C)c1N)C(c1ccc(C(C)C)cc1)C(C)(C)O2 (stereo not given) | 98 to 100 °C
CCN(CC)CCn1sc2nc(-c3ccccc3)ncc2c1=O | 106 to 107 °C
O=C(CC(=O)c1ccc(O)cc1O)c1ccc(OCc2ccccc2)c(OCc2ccccc2)c1 | 245 to 247 °C
COC(=O)c1c(OC(C)=O)cc(CBr)cc1OC(C)=O | 93 to 95 °C
CN1CCC23CC(=O)CCC2C1Cc1ccccc13 (stereo not given) | 164 to 166 °C
COc1ccccc1N1CCN(CCCCc2ccc(C3CCC(=O)N3)cc2)CC1 (stereo not given) | 130 to 131 °C
O=C(Cc1cc(C(F)(F)F)ns1)c1ccc(Cl)cc1 | 109 to 110 °C
CC(NCCO)c1ccccc1 (stereo not given) | 60 °C
c1cc2c(cc1-c1nc(OCC3CC3)nc3cc4c(cc13)OCO4)OCO2 | 175 to 182 °C
C=Cc1ccc(ON2C(=O)c3ccccc3C2=O)cc1 | 129 to 131 °C
COc1nc2ccc(Cl)cc2nc1Sc1nnc(C)s1 | 186 to 188 °C
Cc1ccc(C(=O)c2cc(C)n(C)c2)cc1 | 117 to 119 °C
NC(=O)c1c(-c2ccccc2)csc1O | 108 to 110 °C

Other lines, results leading:

melting point | SMILES
126 to 131 °C | COc1ccc(CN2C(=O)c3c(-c4ccccc4Cl)cc4c(c3C2=O)c2cc(OC)ccc2n4CCC(O)CO)c(OC)c1 (stereo not given)
223 °C | Cc1csc2c1c(N1CCN(C(=O)c3cccs3)CC1)c(C#N)c(=O)n2Cc1ccccc1
74 °C | CCOC(=O)c1ccc(N(N)C(=O)OC(C)(C)C)cc1
91 to 94 °C | CCOCc1cc(OC)c(-c2ccc(C[C@H](NC(=O)c3c(Cl)cccc3Cl)C(=O)OCC)cc2)c(OC)c1
136 to 138 °C | C=C1N(c2ccccc2)C(=O)OC12CCN(CCC=C(c1ccc(F)cc1)c1ccc(F)cc1)CC2
80 to 83 °C | CC/C(=C(/C)C#N)c1cccc(O)c1
110 °C | COc1cc(Nc2nccc(S(=O)(=O)c3ccccc3)n2)cc(OC)c1OC
275 °C | CCc1nnc(-c2ccc(O)cc2)n1-c1ccccc1
204 °C | NS(=O)(=O)c1cccc(-c2cccc(-c3nc(-c4ccc(C(F)(F)F)cc4)cc(C(F)F)n3)c2)c1
62 to 63 °C | O=c1oc2ncccc2n1CCCBr
246 to 248 °C | O=C1CCCc2cc(=O)[nH]cc21
58 to 62 °C | COC(=O)N1CCC[C@@H](OC)[C@@H]1CC(=O)Cn1cnc2c(Cl)c(Cl)sc2c1=O (relative stereo)
165 to 166 °C | O=C1C(=O)c2ccccc2C2=C1SCC1(CCN(C(=O)c3ccccc3I)CC1)O2
128 to 130 °C | CC#CCN=C(NC#N)NCCSCc1[nH]cnc1C
151 °C | CCOC(=O)c1ccc(NS(C)(=O)=O)c(N)c1
203 °C | Cc1cccc(C)c1CNc1cc(C(=O)N(C)C)nc2c(C)c(C)n(Cc3ccccc3)c12
82 to 83 °C | C=CCOc1cc(-n2c(OC)nc(C(F)(F)C(F)(F)F)cc2=O)c(F)cc1Cl
162 to 163 °C | Cc1ccc(S(=O)(=O)n2cc(/C=C/C(=O)N(C)C)nc2C)cc1
97 to 98 °C | CN1CCCC(OC(=O)Nc2ccc(F)cc2)C1 (stereo not given)
192 to 195 °C | CCOc1ccc(-c2ccc3c(c2)C=C(C(=O)Nc2ccc(CN(C)C4CCOCC4)cc2)CCS3=O)cc1 (stereo not given)
97 to 100 °C | COc1cc(CC(=O)O)ccc1OCCc1ccccc1
120 to 122 °C | COc1cc2nc(SCc3ncc(C)c(N(C)C)c3Cl)[nH]c2cc1OC
169 to 170 °C | CS(=O)(=O)c1ccc(-n2nc(C(F)(F)F)cc2-c2ccc(-c3cncs3)cc2)cc1
221 to 223 °C | CCC(=O)Nc1cccc2c1C(=O)N(C1CCC(=O)NC1=O)C2=O (stereo not given)
159 °C | COC(=C1C2CC3CC(C2)CC1C3)c1cc(OC)cc(OC(=O)C(C)(C)C)c1
